Laboratory results taken from patent US11753407B2, “Compounds for treating spinal muscular atrophy” (PTC Therapeutics, Inc., priority 2012, dated 2023).

Test system: Smn protein in SMA patient fibroblast cells (GM03813)
Assay: Smn protein assay in cultured cells (SMN HTRF)
Assay type: cell-based, human
Conditions: 48 hours; for Smn protein expression: SMA Type 1 patient fibroblast cells, SMN HTRF assay (FIG. 8); for EC1.5x for Smn protein expression / maximum fold (Fold) increase of Smn protein: SMA patient fibroblast cells; for EC1.5x for Smn protein expression: 7-point concentration curve, SMN HTRF, concentration producing 1.5 times Smn protein vs DMSO vehicle control; for maximum fold (Fold) increase of Smn protein: 7-point concentration data, fold relative to vehicle control
Outline: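 SMA patient fibroblasts (5,000/well, DMEM-10% FBS) treated 48 h at 37° C with 7-point, 3.16-fold compound series in triplicate; lysates read by SMN HTRF (665/620 nm ratio). Fold Smn increase over DMSO vehicle derived; EC1.5× is concentration giving 1.5-fold Smn, with maximum fold also reported.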

| Structure (SMILES) | Smn protein expression | EC1.5x for Smn protein expression | maximum fold (Fold) increase of Smn protein |
| --- | --- | --- | --- |
| COc1ccc(-c2cc(=O)n3cc(N4CCNCC4)ccc3n2)cc1OC [Cpd 6, 2-(3,4-dimethoxyphenyl)-7-(piperazin-1-yl)-4H-pyrido[1,2-a]pyrimidin-4-one] | dose dependent increase in Smn protein expression | *** (an EC1.5× between >0.3 μM and ≤1 μM is indicated by three stars (***)) | **** (a fold increase between >1.5 and ≤1.65 is indicated by four stars (****)) |
| Cc1cn2nc(-c3cc(=O)n4cc(N5CCN(C)CC5)ccc4n3)cc2c(C)n1 [Cpd 170, 2-(4,6-dimethylpyrazolo[1,5-a]pyrazin-2-yl)-7-(4-methylpiperazin-1-yl)-4H-pyrido[1,2-a]pyrimidin-4-one] | dose dependent increase in Smn protein expression | **** (an EC1.5x≤0.3 μM is indicated by four stars (****)) | ***** (a fold increase >1.65 is indicated by five stars (*****)) |
